Reference: patent US20210115104A1, “AMYLIN ANALOGUES” (Zealand Pharma A/S, priority 2015, published 2021)
*1 amine or outer side, *2 acyl side, *3 side chain or, on linkers, in order; H or OH if unused. Where a SMILES comes first, the peptide text is derived from it. Bridges are numbered along the chain shown (N, C = ends). [ ]: non-standard residue; d: D form. The star is where a group is joined. C20 diacid = O=C(O)CCCCCCCCCCCCCCCCCCC(=O)*; γGlu = O=C(O)[C@H](CCC(=O)[*:2])N[*:1]; Hyp = O=C(O)[C@@H]1C[C@@H](O)CN1; NMeI = CC[C@H](C)[C@H](NC)C(=O)O; Sar = CNCC(=O)O

How the values were obtained:
[1] = target: T1, human amylin receptor 3 (hAMYR3), hCTR2 co-expressed with hRAMP3 (Homo sapiens, UniProt O60896+P30988); test: hAMYR3 cAMP assay (AlphaScreen) in COS7 cells; format: cell-based; details: cAMP induction, COS7 cells expressing hAMYR3; Table 1; read-out: hAMYR3 EC50
T1 construct: expressed in transfected cells
T1 sequence (P30988 25-474): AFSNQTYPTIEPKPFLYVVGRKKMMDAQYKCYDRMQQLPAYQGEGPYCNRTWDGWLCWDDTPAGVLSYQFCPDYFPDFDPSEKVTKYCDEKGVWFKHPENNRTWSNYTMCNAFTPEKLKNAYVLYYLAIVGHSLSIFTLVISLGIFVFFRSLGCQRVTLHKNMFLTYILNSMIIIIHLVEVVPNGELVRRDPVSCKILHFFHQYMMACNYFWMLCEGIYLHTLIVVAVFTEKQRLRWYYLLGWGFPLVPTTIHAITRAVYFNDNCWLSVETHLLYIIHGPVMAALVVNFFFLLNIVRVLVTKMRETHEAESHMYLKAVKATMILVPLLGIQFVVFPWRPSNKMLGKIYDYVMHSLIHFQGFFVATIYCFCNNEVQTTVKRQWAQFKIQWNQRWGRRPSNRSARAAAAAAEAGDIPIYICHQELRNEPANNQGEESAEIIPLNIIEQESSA
T1 sequence (O60896 24-148 partner): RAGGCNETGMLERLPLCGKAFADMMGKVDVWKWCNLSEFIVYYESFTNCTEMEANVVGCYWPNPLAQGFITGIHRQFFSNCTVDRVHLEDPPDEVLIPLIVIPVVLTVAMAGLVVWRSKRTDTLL
How it was run: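 Stable COS7 clone co-expressing hCTR2 and hRAMP3 was exposed to increasing peptide concentrations in Tyrode buffer (pH 7.4) with 100 µM IBMX and 0.1% casein for 15 min at 37 °C. Lysate cAMP was measured by AlphaScreen; EC50 came from 4-parameter logistic fitting.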

[2] = Assessment of physical stability (Thioflavin T fibrillation); format: physicochemical; parameters: key: FND = fibrillation not detected; FD = fibrillation detected; details: 1 mg/ml, 40° C., ThT; for Fibrillation pH 4.0 (Ac): 50 mM acetate buffer pH 4.0, 96 hours; for Fibrillation pH 7.0 (His): 50 mM histidine buffer pH 7.0, 96 hours; for Fibrillation pH 7.0 (Phos.): 50 mM phosphate buffer pH 7.0, 96 hours
How it was run: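 1 mg/ml peptide with 40 μM ThT in 50 mM phosphate pH 7.0, 50 mM histidine pH 7.0 or 50 mM acetate pH 4.0, in triplicate. Fluorescence read every 10 min after 300 s agitation over 96 h at 40 °C. Lag-time (h) is the intersection of linear fits to stable and growth phases.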

[3] = Pharmacokinetic (PK) profiling in rats; format: in vivo, rat; parameters: CI/F (apparent clearance values): unit not given here; details: Sprague Dawley male rats, single sc 30 nmol/kg
Protocol: Sprague Dawley male rats were given a single subcutaneous (sc) bolus of each peptide to be tested, as specified below. 30 nmol/kg doses of compound were administered. Blood samples were drawn from the tail vein prior to dosing and at 24, 48, 72, 96 and 168 hours after dosing. Blood samples were taken from two rats at each time point, and only 2 blood samples were drawn from each rat, i.e. […] were used for each compound. The rats were euthanized immediately after the last blood sampling by concussion and cervical dislocation.
The dosing vehicle used for each test peptide was a mannitol-containing histidine buffer (pH 7.0). Plasma samples were analyzed after precipitation with ethanol by liquid chromatography mass spectrometry (LC-MS/MS). Mean plasma concentrations were used for calculation of the pharmacokinetic parameters using the non-compartmental approach in Phoenix WinNonlin 6.3.
Plasma terminal elimination half-life (t1/2) was determined as ln(2)/λz, where λz is the magnitude of the slope of the log linear regression of the log concentration versus time profile during the terminal phase. Apparent clearance (CL/F) was determined as dose/AUCinf (sc), where AUCinf is the area under the plasma concentration vs. time curve extrapolated to infinity (AUCinf=AUClast+Clast/λz, where Clast is the last observed plasma concentration).

SMILES | EC50 [1] | Fibrillation pH 4.0 (Ac) [2] | Fibrillation pH 7.0 (His) [2] | Fibrillation pH 7.0 (Phos.) [2] | CI/F (apparent clearance values) [3] | half-life ([3]; rat, plasma, read-out: Plasma terminal elimination half-life t1/2 (converted))
CC[C@H](C)[C@@H](C(=O)N[C@@H](CC(C)C)C(=O)N[C@@H](CO)C(=O)N[C@@H](CO)C(=O)N[C@H](C(=O)N[C@@H](CCC(=O)O)C(=O)N[C@H](C(=O)NCC(=O)N[C@@H](CO)C(=O)N[C@@H](CO)C(=O)N[C@H](C(=O)N1CCC[C@H]1C(N)=O)[C@@H](C)O)C(C)C)[C@@H](C)O)N(C)C(=O)[C@H](C)NC(=O)CN(C)C(=O)[C@H](Cc1ccccc1)NC(=O)[C@H](CO)NC(=O)[C@H](CO)NC(=O)[C@H](CCCNC(=N)N)NC(=O)[C@H](CCC(=O)O)NC(=O)[C@H](CC(C)C)NC(=O)[C@H](Cc1ccccc1)NC(=O)[C@H](Cc1c[nH]cn1)NC(=O)[C@H](C)NC(=O)[C@H](CC(C)C)NC(=O)[C@H](CCCNC(=N)N)NC(=O)[C@H](CCC(=O)O)NC(=O)[C@@H](NC(=O)[C@H](C)NC(=O)[C@@H]1CSSC[C@H](NC(=O)[C@H](CCCNC(=N)N)NC(=O)CC[C@H](NC(=O)CCCCCCCCCCCCCCCCCCC(=O)O)C(=O)O)C(=O)NCC(=O)N[C@@H]([C@@H](C)O)C(=O)N[C@@H](C)C(=O)N[C@@H]([C@@H](C)O)C(=O)N1)[C@@H](C)O [Compound 36, [19CD]-isoGlu-R-C( )-GTAT-C( )-ATERLAHFLERSSF-Gly(Me)-A-Ile(Me)-LSSTEVGSSTP-NH2] ({C20 diacid-γGlu}-RCGTATCATERLAHFLERSSF[Sar]A[NMeI]LSSTEVGSSTP-NH2; disulfide 2-7) | 0.36 nM | FND | FND | FD | 0.0117 | 25.7 h
CC[C@H](C)[C@@H](C(=O)N[C@@H](CC(C)C)C(=O)N[C@@H](CO)C(=O)N[C@@H](CO)C(=O)N[C@H](C(=O)N[C@@H](CCC(=O)O)C(=O)N[C@H](C(=O)NCC(=O)N[C@@H](CO)C(=O)NCC(=O)N[C@H](C(=O)N1C[C@H](O)C[C@H]1C(N)=O)[C@@H](C)O)C(C)C)[C@@H](C)O)N(C)C(=O)[C@H](C)NC(=O)CN(C)C(=O)[C@H](Cc1ccccc1)NC(=O)[C@H](CO)NC(=O)[C@H](CO)NC(=O)[C@H](CCCNC(=N)N)NC(=O)[C@H](CCC(N)=O)NC(=O)[C@H](CC(C)C)NC(=O)[C@H](Cc1ccccc1)NC(=O)[C@H](Cc1c[nH]cn1)NC(=O)[C@H](C)NC(=O)[C@H](CC(C)C)NC(=O)[C@H](CCCNC(=N)N)NC(=O)[C@H](CCC(N)=O)NC(=O)[C@@H](NC(=O)[C@H](C)NC(=O)[C@@H]1CSSC[C@H](NC(=O)[C@H](CCCNC(=N)N)NC(=O)CC[C@H](NC(=O)CCCCCCCCCCCCCCCCCCC(=O)O)C(=O)O)C(=O)N[C@@H](CC(N)=O)C(=O)N[C@@H]([C@@H](C)O)C(=O)N[C@@H](C)C(=O)N[C@@H]([C@@H](C)O)C(=O)N1)[C@@H](C)O [Compound 71, [19CD]-isoGlu-R-C( )-NTAT-C( )-ATQRLAHFLQRSSF-Gly(Me)-A-Ile(Me)-LSSTEVGSGT-Hyp-NH2] ({C20 diacid-γGlu}-RCNTATCATQRLAHFLQRSSF[Sar]A[NMeI]LSSTEVGSGT[Hyp]-NH2; disulfide 2-7) | 0.18 nM | FND | FD | FD | 0.0146 | –
CC[C@H](C)[C@@H](C(=O)N[C@@H](CC(C)C)C(=O)N[C@@H](CO)C(=O)N[C@@H](CO)C(=O)N[C@H](C(=O)N[C@@H](CCC(=O)O)C(=O)N[C@H](C(=O)NCC(=O)N[C@@H](CO)C(=O)N[C@@H](CO)C(=O)N[C@H](C(=O)N1C[C@H](O)C[C@H]1C(N)=O)[C@@H](C)O)C(C)C)[C@@H](C)O)N(C)C(=O)[C@H](C)NC(=O)CN(C)C(=O)[C@H](Cc1ccccc1)NC(=O)[C@H](CO)NC(=O)[C@H](CO)NC(=O)[C@H](CCCNC(=N)N)NC(=O)[C@H](CCC(N)=O)NC(=O)[C@H](CC(C)C)NC(=O)[C@H](Cc1ccccc1)NC(=O)[C@H](Cc1c[nH]cn1)NC(=O)[C@H](C)NC(=O)[C@H](CC(C)C)NC(=O)[C@H](CCCNC(=N)N)NC(=O)[C@H](CCC(=O)O)NC(=O)[C@@H](NC(=O)[C@H](C)NC(=O)[C@@H]1CSSC[C@H](NC(=O)[C@H](CCCNC(=N)N)NC(=O)CC[C@H](NC(=O)CCCCCCCCCCCCCCCCCCC(=O)O)C(=O)O)C(=O)NCC(=O)N[C@@H]([C@@H](C)O)C(=O)N[C@@H](C)C(=O)N[C@@H]([C@@H](C)O)C(=O)N1)[C@@H](C)O [Compound 28, [19CD]-isoGlu-R-C( )-GTAT-C( )-ATERLAHFLQRSSF-Gly(Me)-A-Ile(Me)-LSSTEVGSST-Hyp-NH2] ({C20 diacid-γGlu}-RCGTATCATERLAHFLQRSSF[Sar]A[NMeI]LSSTEVGSST[Hyp]-NH2; disulfide 2-7) | 0.13 nM | FND | FND | FND | 0.0128 | –
CC[C@H](C)[C@@H](C(=O)N[C@@H](CC(C)C)C(=O)N[C@@H](CO)C(=O)N[C@@H](CO)C(=O)N[C@H](C(=O)N[C@@H](CCC(=O)O)C(=O)N[C@H](C(=O)NCC(=O)N[C@@H](CO)C(=O)N[C@@H](CC(N)=O)C(=O)N[C@H](C(=O)N1C[C@H](O)C[C@H]1C(N)=O)[C@@H](C)O)C(C)C)[C@@H](C)O)N(C)C(=O)[C@H](C)NC(=O)CN(C)C(=O)[C@H](Cc1ccccc1)NC(=O)[C@H](CO)NC(=O)[C@H](CO)NC(=O)[C@H](CCCNC(=N)N)NC(=O)[C@H](CCC(N)=O)NC(=O)[C@H](CC(C)C)NC(=O)[C@H](Cc1ccccc1)NC(=O)[C@H](Cc1c[nH]cn1)NC(=O)[C@H](C)NC(=O)[C@H](CC(C)C)NC(=O)[C@H](CCCNC(=N)N)NC(=O)[C@H](CCC(=O)O)NC(=O)[C@@H](NC(=O)[C@H](C)NC(=O)[C@@H]1CSSC[C@H](NC(=O)[C@H](CCCNC(=N)N)NC(=O)CC[C@H](NC(=O)CCCCCCCCCCCCCCCCCCC(=O)O)C(=O)O)C(=O)NCC(=O)N[C@@H]([C@@H](C)O)C(=O)N[C@@H](C)C(=O)N[C@@H]([C@@H](C)O)C(=O)N1)[C@@H](C)O [Compound 7, [19CD]-isoGlu-R-C( )-GTAT-C( )-ATERLAHFLQRSSF-Gly(Me)-A-Ile(Me)-LSSTEVGSNT-Hyp-NH2] ({C20 diacid-γGlu}-RCGTATCATERLAHFLQRSSF[Sar]A[NMeI]LSSTEVGSNT[Hyp]-NH2; disulfide 2-7) | – | FND | FND | FND | 0.0087 | –
